Source: patent US9328130B2, “Method of treating organism by biologically active compounds specifically delivered into mitochondria, pharmaceutical composition required for the use of the method and a compound applicable for this purpose” (MITOTECH S.A., priority 2005, dated 2016)

Legend:
human lung fibroblasts = test: Protection from apoptosis caused by H2O2; format: cell-based; conditions: preincubation with 20 nM for 6 days
Description: Normal diploid fibroblasts from human skin and lung, human uterus carcinoma cells (HeLa cells) and human lymphoma cells (U 937 strain) were used in this experiment. Cells were cultivated in standard media (DMEM or RPMI) in the presence of 10% fetal serum at 37° C. and 5% CO2. Experiments were carried out on the cultured cells grown to 30-50% confluency. H2O2 was added once and the cells were analyzed after 18-24 h of incubation. Apoptotic death was monitored by condensation of chromatin and nucleus fragmentation after staining the cells with Hoechst 33342 (1 μg/ml, 15 min). 300-500 cells were taken into account from each preparation and the final results are the average of 3-5 independent experiments. Necrosis was determined by staining of nuclei with propidium iodide (2 μg/ml, 5 min). […] It was confirmed that apoptosis in all cases was accompanied with decrease of mitochondrial membrane potential, release of cytochrome c from mitochondria into cytoplasm and activation of caspases.

[1] = system: Normal fibroblasts from the human skin and lung; test: Morphology and mobility of normal fibroblasts; format: cell-based; conditions: 20 nM for 6 days
Description: Normal fibroblasts from the human skin and lung and HeLa cells were cultivated at low cell density (20-30% confluency). Morphometric measurements were carried out for cell area, dispersion and elongation. Cytoskeleton structures were analyzed by staining the fixed cell preparations with rhodamine falloidin (actin filaments), antibodies against tubulin (microtubules) and vinculin (surface contacts). Mobility of the cells was examined with the help of microvideo camera.

Yarrowia lipolytica = test: Protection of yeast cells from death caused by hydrogen peroxide; format: cell-based
Plants cuttings = test: Development of higher plants under darkness stress; format: in vivo
Description: Plants cuttings were grown at the artificial agarized medium MS supplemented with 1 μM SkQ1 (3 plants) and with no addition of SkQ1 as a control (3 plants). Cuttings were placed into 50 ml transparent tubes and grown in climate chamber for 3 weeks at 27° C. and periodical illumination (14 h of light, 10 h of darkness). Then the plants were subjected to darkness stress, i.e. were grown in complete darkness for 7 days.

SMILES: CC1=C(C)C(=O)C(CCCCCCCCCC[P+](c2ccccc2)(c2ccccc2)c2ccccc2)=CC1=O.[Br-] [SkQ1, 2,3-dimethyl-1,4-benzoquinon-5-decyl-triphenylphosphonium bromide]
- apoptosis among cell population (human lung fibroblasts; 100 μM H2O2): 7±3%
- apoptosis among cell population (human lung fibroblasts; 200 μM H2O2): 12±5%
- amount of actin filaments, times higher [1]: 3.7 times
- dispersion index lowered by factor [1]: 2.4
- filament density in comparison to the control [1]: 136%
- mean cell area, times higher than control [1]: 2.9 times
- mobility of fibroblasts [1]: distinctly lower
- rate of fibroblast proliferation [1]: no influence on the rate of fibroblast proliferation
- elongation index ([1]; control 2.34): 0.69
- concentration as effective as 25 μM α-tocopherol (Yarrowia lipolytica): 10 -fold lower
- death of cells caused by hydrogen peroxide (Yarrowia lipolytica; 10 mM hydrogen peroxide): partially prevents the death
- effect on survival compared among protectants (Yarrowia lipolytica; FIG. 14, α-tocopherol 25 μM): very similar
- colour of plants after darkness stress (Plants cuttings; 1 μM in MS medium, 7 days complete darkness): retained their green color
- plant size in comparison to control plants (Plants cuttings; 1 μM, additional 20 days normal lighting): more than 3 times
- LD50 in the presence of hydrogen peroxide (Hela cells; 100 μM hydrogen peroxide): 20 µM
- LD50 (concentrations at which 50% cells die) (Hela cells; 2 h of incubation, no hydrogen peroxide): 20 µM
